Reference: PMC7596181 (Frontiers in Immunology, 2020)

Molecular target: T1, mouse TLR4 (Mus musculus, UniProt Q9JHF9+Q9QUK6)
T1 sequence (Q9QUK6 26-835): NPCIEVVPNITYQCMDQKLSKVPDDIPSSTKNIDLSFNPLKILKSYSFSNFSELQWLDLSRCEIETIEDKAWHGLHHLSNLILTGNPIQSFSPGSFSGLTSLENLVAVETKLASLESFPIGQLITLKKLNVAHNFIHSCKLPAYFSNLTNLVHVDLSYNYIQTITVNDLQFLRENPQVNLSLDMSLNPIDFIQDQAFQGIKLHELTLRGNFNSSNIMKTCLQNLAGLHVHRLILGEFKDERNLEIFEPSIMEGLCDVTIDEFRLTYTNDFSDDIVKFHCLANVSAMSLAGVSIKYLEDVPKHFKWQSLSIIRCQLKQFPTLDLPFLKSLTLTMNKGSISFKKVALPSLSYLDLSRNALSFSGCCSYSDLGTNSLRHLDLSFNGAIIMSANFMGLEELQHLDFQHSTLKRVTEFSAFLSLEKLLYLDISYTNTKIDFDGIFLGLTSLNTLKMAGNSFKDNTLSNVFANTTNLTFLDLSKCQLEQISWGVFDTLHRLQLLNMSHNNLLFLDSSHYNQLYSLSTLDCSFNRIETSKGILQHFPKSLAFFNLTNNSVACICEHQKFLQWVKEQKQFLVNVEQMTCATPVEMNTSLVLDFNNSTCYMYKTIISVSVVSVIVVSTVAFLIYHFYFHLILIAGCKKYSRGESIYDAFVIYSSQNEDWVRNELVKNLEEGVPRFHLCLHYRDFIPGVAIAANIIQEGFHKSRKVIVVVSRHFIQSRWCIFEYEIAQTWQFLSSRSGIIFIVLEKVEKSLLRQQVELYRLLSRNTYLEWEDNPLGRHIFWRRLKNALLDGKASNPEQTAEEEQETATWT
T1 sequence (Q9JHF9 19-160): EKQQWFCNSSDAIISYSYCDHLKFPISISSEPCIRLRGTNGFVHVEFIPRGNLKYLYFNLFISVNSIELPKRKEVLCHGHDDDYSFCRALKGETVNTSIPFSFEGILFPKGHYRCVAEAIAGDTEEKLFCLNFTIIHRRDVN
Assay: SEAP assay, agonist dose response in mouse TLR4 HEK-Blue reporter cells
Assay type: cell-based
Design: host or cells: HEK-Blue (HEK293-derived) reporter cells
Settings: for agonist profile: mouse TLR4 HEK-Blue reporter cells
Protocol: Human and mouse HEK-Blue reporter cells express human or mouse CD14, MD2, and TLR4 and secreted embryonic alkaline phosphatase (SEAP) under control of a promoter with binding sites for NFκB and AP-1 transcription factors (InvivoGen cat. nos. hkb-htlr4 and hkb-mtlr4). Cells were cultured as directed by the supplier, with the exception that Glutamax (ThermoFisher cat. no. 10569010) was used in place of L-glutamine, and TrypLE Express (ThermoFisher cat. no. 12605010) was used to release adherent cells for each passage. BALB/c mouse RAW264.7 and human THP-1 cells (ATCC® cat. nos. TIB-71 and TIB-202) were cultured in DMEM (4.5 g/L D-Glucose with 2 mM L-glutamine, 1 mM sodium pyruvate, 100 U/ml penicillin and 100 μg/ml streptomycin) supplemented with 10% heat-inactivated FBS. THP-1 cells were exposed to phorbol-12-myristate-13-acetate (PMA, InvivoGen cat no. tlrl-pma), 5 ng/ml, for 48 h prior to treatment with TLR4 agonists. Bone marrow-derived dendritic cells (BMDCs) were generated using C57BL/6 mouse femurs following the exact method published by Lutz et al. ([29]) except that 5 rather than 20 ng/ml recombinant GM-CSF was used to differentiate the DC. Human peripheral blood […] (PBMCs) were prepared from venous blood of healthy volunteers that had been collected using sodium citrate as anti-coagulant, 20 ml of which was mixed with 15 ml calcium- and magnesium-free Hank’s Balanced Saline Solution (HBSS) and then laid over 6 ml Histopaque®-1077 (1.077 g/ml, Sigma-Aldrich cat no. 10771) for density gradient centrifugation. The buffy coat layer was collected by pipette, washed once in HBSS, once in serum-free RPMI-1640, and then the PBMCs were resuspended in RPMI-1640 supplemented with 100 U/ml penicillin, 100 µg/ml streptomycin, 1 mM Na-Pyruvate, 2 mM L-glutamine, 50 μM βME and 10% heat-inactivated, male AB human serum for culture.
SEAP assays were performed to evaluate the extent to which TLR4 signaling was activated in HEK-Blue reporter cells expressing mouse or human receptors (CD14, MD2 and TLR4). Reporter cells were harvested when 70–80% confluent and plated in 96-well, flat-bottom microtiter plates either 1 h, one day or two days (5 × 10^4, 4 × 10^4 or 2 × 10^4 cells/well, respectively) before addition of TLR4 agonists for 18–24 h. Culture supernatants were transferred to U-bottom microtiter plates, centrifuged and transferred again to microtiter plates to ensure reporter cells were not present. The culture supernatants were added to QUANTI-BLUE substrate following instructions provided by the manufacturer (InvivoGen cat. nos. rep-qbl or rep-qbs) and incubated at 37°C in a tissue culture incubator. At successive intervals beginning 10 min after mixing the supernatants and substrate, the plates were placed in an Emax plate reader (Molecular Devices LLC) and optical density was measured at visible light wavelength […] (OD650). The shortest incubations at which dose response curve fits produced maximal R^2 ‘goodness of fit’ values, as determined by GraphPad Prism software, were used for analysis.
Pharmacological profiles of the TLR4 reagents were generated by performing dose response curves in one of four formats. 1) Agonist potency and efficacy (EC50 and height of dose plateau, respectively) were measured by diluting TLR4 reagents successively in complete culture medium [DMEM or RPMI supplemented with fetal bovine serum (FBS) or RPMI supplemented with human serum, depending on cell-type]. Half-log step dilutions were performed in 96-well, U-bottom microtiter plates using a multichannel pipette to transfer and mix the suspensions, with fresh tips used for each dilution step. One-tenth (20 μl) volumes from wells of the dilution plate were then transferred to wells containing cells that had been plated in nine-tenth volumes (180 μl) of culture medium. […]

| agonist profile | efficacy relative to the full agonist PHAD (mouse TLR4 HEK-Blue, 100% = top dose plateau of PHAD) [%] | SMILES |
| --- | --- | --- |
| agonist only of mouse TLR4 | ~80 | CCCCCCCCCCCC(=O)OC(CCCCCCCCCCC)CC(=O)NC1C(OCC2OC(O)C(NC(=O)CC(O)CCCCCCCCCCC)C(O)C2O)OC(CO)C(OP(=O)(O)O)C1OC(=O)CC(O)CCCCCCCCCCC (stereo not shown) [ML4A] |
| largely inactive |  | CCCCCCCCCCCCCCCC(=O)OC(CCCCCCCCCCC)CC(=O)NC1C(O)OC(COC2OC(CO)C(OP(=O)(O)O)C(O)C2NC(=O)CC(CCCCCCCCCCC)OC(=O)CCCCCCCCCCC)C(O)C1O (stereo not shown) [ML4B] |
| largely inactive |  | CCCCCCCCCCCC(=O)OC(CCCCCCCCCCC)CC(=O)NC1C(OCC2OC(O)C(NC(=O)CC(O)CCCCCCCCCCC)C(O)C2O)OC(CO)C(OP(=O)(O)O)C1O (stereo not shown) [ML3] |
